Data from patent US20150196544A1, “NOVEL BENZO[d][1,3]-DIOXOL DERIVATIVES” (priority 2005, published 2015).

Key:
[1] = system: pooled human liver microsomes; experiment: Human liver microsome metabolic stability assay; format: in vitro ADME; details: for % Remaining 30 min / % Remaining 60 min / % Remaining 120 min: pooled human liver microsomes 1.0 mg/mL, 1 μM test compound, 37° C.
Protocol: The objectives of the present study were to determine the metabolic stability of the test compounds in pooled liver microsomal incubations and to perform full scan LC-MS analysis for the detection of major metabolites. Samples of the test compounds, exposed to pooled human liver microsomes, were analyzed using HPLC-MS (or MS/MS) detection. For determining metabolic stability, multiple reaction monitoring (MRM) was used to measure the disappearance of the test compounds. For metabolite detection, Q1 full scans were used as survey scans to detect the major metabolites.
Human liver microsomes were obtained from Absorption Systems L.P. (Exton, Pa.). The incubation mixture was prepared as follows:
The reaction mixture, minus cofactors, was prepared. An aliquot of the reaction mixture (without cofactors) was incubated in a shaking water bath at 37° C. for 3 minutes. Another aliquot of the reaction mixture was prepared as the negative control. The test compound was added into both the reaction mixture and the negative control at a final concentration of 1 μM. An aliquot of the reaction mixture was prepared as a blank control, by the addition of plain organic solvent (not the test compound). The reaction was initiated by the addition of cofactors (not into the negative controls), and then incubated in a shaking water bath at 37° C. Aliquots (200 μL) were withdrawn in triplicate at 0, 15, 30, 60, and 120 minutes and combined with 800 μL of ice-cold 50/50 acetonitrile/deionized water to terminate the reaction. The positive controls, testosterone and propranolol, were run simultaneously with the test compounds in separate reactions. All samples were analyzed using LC-MS (or MS/MS). An LC-MRM-MS/MS method was used for metabolic stability. Also, Q1 full scan LC-MS methods were performed on the blank matrix and the test compound incubation samples. The Q1 scans served as survey scans to identify any sample unique peaks that might represent the possible metabolites. The masses of these potential metabolites can be determined from the Q1 scans.
The test compounds were evaluated in the human liver microsome assay described above along with paroxetine as a control. The columns of Table 2 labelled “% remaining” refer to the percentage of each test compound remaining after 30, 60 and 120 minute intervals in the human microsomal assay.

[2] = 30 mg oral solution, radiolabeled, healthy volunteers, cited from earlier work
CYP2D6 [3] = molecular target: T1, CYP2D6 (Homo sapiens, UniProt P10635); details: mechanism-based; cited from earlier work
T1 sequence (P10635 whole entry): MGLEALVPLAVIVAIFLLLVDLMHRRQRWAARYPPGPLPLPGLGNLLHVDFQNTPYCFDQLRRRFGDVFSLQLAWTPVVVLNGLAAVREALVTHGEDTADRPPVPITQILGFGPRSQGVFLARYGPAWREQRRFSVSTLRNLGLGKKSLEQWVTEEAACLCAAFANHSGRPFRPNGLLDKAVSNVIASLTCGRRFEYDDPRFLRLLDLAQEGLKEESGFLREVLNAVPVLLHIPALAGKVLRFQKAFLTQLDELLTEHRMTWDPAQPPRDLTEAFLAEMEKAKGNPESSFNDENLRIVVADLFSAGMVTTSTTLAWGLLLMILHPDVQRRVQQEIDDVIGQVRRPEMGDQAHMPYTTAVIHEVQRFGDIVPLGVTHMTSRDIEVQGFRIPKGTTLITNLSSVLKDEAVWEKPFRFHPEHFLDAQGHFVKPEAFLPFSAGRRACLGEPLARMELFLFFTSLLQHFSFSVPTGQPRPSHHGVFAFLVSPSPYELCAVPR

CYP2D6 [4] = molecular target: T1, CYP2D6; details: clinical; cited from earlier work
[5] = cited from earlier work
mice = experiment: Forced tail suspension test, immobility time; format: in vivo; details: 15 mg/kg oral (as free base), versus vehicle control
Protocol: The product of Example 11 is tested at MDS Pharma by oral administration to mice (n=8) to determine its effect on total immobility time during forced tail suspension, using essentially the procedure of “Drug Discovery and Evaluation”, Vogel H G and Vogel W H (eds.), p. 304, 1997, Springer-Verlag, New York.

Row | % Remaining 30 min [1] [%] | % Remaining 60 min [1] [%] | % Remaining 120 min [1] [%] | stability in the microsome assay (in words) ([1]; human liver microsomes, summary of Table 2) | SMILES | excreted in the feces as parent compound ([2]; 10-day period) | excreted in the feces, total ([2]; 10-day period) | excreted in the urine as metabolites ([2]; 10-day period) [%] | excreted in the urine as parent compound ([2]; 10-day period) [%] | excreted in the urine, total ([2]; 10-day post-dosing period) | inactivation of CYP2D6 (in words) (CYP2D6 [3]) | reduction in CYP2D6 activity (in words) (CYP2D6 [4]) | half-life, poor metabolizers versus extensive metabolizers ([5]; European cohort, low versus higher CYP2D6 activity) | coefficients of variability across Cmax, Cmin and AUC ([5]; steady state, test population) | total immobility time during forced tail suspension (mice)
1 | 29 | 26 | 16 |  | Cl.[2H]C1([2H])Oc2ccc(OC[C@@H]3CNCC[C@H]3c3ccc(F)cc3)cc2O1 [A, (3S,4R)-3-((2,2-dideuterobenzo[d][1,3]dioxol-5-yloxy)methyl)-4-(4-fluorophenyl)piperidine hydrochloride] |  |  |  |  |  |  |  |  |  | 
2 | 22 | 10 | 6 |  | Cl.[2H]C1([2H])Oc2ccc(OC([2H])([2H])[C@@H]3CNCC[C@H]3c3ccc(F)cc3)cc2O1 [B, (3S,4R)-3-((2,2-dideuterobenzo[d][1,3]dioxol-5-yloxy)dideuteromethyl)-4-(4-fluorophenyl)piperidine hydrochloride] |  |  |  |  |  |  |  |  |  | 
3 | 51 | 51 | 44 | relative stability | Fc1ccc([C@@H]2CCNC[C@H]2COc2ccc3c(c2)OCO3)cc1 [Compound 1, (3S,4R)-3-((benzo[d][1,3]dioxol-5-yloxy)methyl)-4-(4-fluorophenyl)piperidine] | less than 1% | About 36% | 62 | 2 | approximately 64% | highly potent, mechanism based inactivator | dose-dependent, highly significant reduction | approximately 3 fold | 30-70% | 
4 |  |  |  |  | CC(C)(C)OC(=O)N1CC[C@@H](c2ccc(F)cc2)[C@H](CO)C1 [Example 11, (3S,4R)-tert-butyl 4-(4-fluorophenyl)-3-(hydroxymethyl)piperidine-1-carboxylate] |  |  |  |  |  |  |  |  |  | statistical reduction
